Assay [1] relates to CAL-51. Particulars: 72 h. The method in brief:
(§1)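 A 20 µl suspension of breast cancer cells was placed in 384-well plates that already contained compound at 5 concentrations in 10-fold steps across a compound-specific 10,000-fold range, and the plates were left for 72 h. CellTox Green fluorescence at 485/520 nm gave cell death, and CellTiter-Glo luminescence, read after 10 min at room temperature, gave viability. Each plate was normalised to 0.1 % DMSO and a positive kill control. EC50 was fitted from the curves and censored at the top concentration.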

Assay [2] deals with CAL-51. Particulars: 72 h. The method in brief:
(§2)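 For viability, cells received 2.5 µl CellTiter-Blue for 2 h at 37 °C and fluorescence was read at 560/590 nm. Before this, breast cancer cell lines in 20 µl suspension had been incubated for 72 h on 384-well plates pre-loaded with compound dissolved in 5 µl medium. EC50 was obtained from a percent-inhibition dose-response fit censored at the highest concentration, after normalisation of each plate to vehicle and a positive kill control; rows with a zero drug sensitivity score were discarded.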
This is another data set of the same source.

For assay [3], the system named is HCC1937. Particulars: 72 h. The method in brief:
as §2

Assay [4] has as its system CAL-51. As to conditions: 72 h. Here is the method: (§3)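 Drug sensitivity and resistance testing (DSRT) of breast cancer cell lines in 384-well plates, 5 concentrations in 10-fold dilutions over a compound-specific 10,000-fold range. After 72 h, cytotoxicity was read by CellTox Green fluorescence and viability by CellTiter-Glo luminescence (multiplexed), normalised to DMSO and benzethonium chloride controls. EC50 is the inflection point of the fitted dose-response curve (bottom asymptote free, so it can be relative for partial curves) and is censored at the highest tested concentration. Rows with DSS 0 (no meaningful response) were excluded.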
This is another data set of the same source.

Assay [5] concerns HCC1937. The assay can be described thus: drug sensitivity score (DSS), CellTox Green (DSS (AUC-based score)); higher = stronger drug effect (viability inhibition or cytotoxicity); extreme values may be limits of the assay. As to conditions: incubation time: 72 h. Put shortly:
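Breast cancer cell lines (20 µl suspension) were seeded into 384-well plates holding compound at 5 concentrations in 10-fold steps over a compound-specific 10,000-fold range, then incubated 72 h. CellTox Green fluorescence (485/520 nm) was read first, then CellTiter-Glo luminescence after 10 min at room temperature. Each plate was normalised to 0.1 % DMSO and a positive kill control. The drug sensitivity score was calculated from the area under the fitted dose-response curve.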

In assay [6] the test system is BT-549. As to conditions: 72 h. Put shortly: as §1
In assay [7] the test system is CAL-120. As to conditions: 72 h. The method in brief: as §1
For assay [8], the system named is CAL-148. Particulars: 72 h. The method in brief: as §1
The subject of assay [9] is CAL-85-1. As to conditions: 72 h. Put shortly:
as §1

For assay [10], the system named is DU-4475. As to conditions: 72 h. The method in brief:
as §1

The subject of assay [11] is HCC1143. As to conditions: 72 h. The method in brief: as §1
Assay [12] has as its system HCC1937. As to conditions: 72 h. The method in brief:
as §1
This is another data set of the same source.

Assay [13] has as its system Hs578T. As to conditions: 72 h. The method in brief: as §1
Assay [14] deals with MCF-10A. As to conditions: 72 h. The method in brief:
as §1

Assay [15] deals with MDA-MB-231. As to conditions: 72 h. Put shortly:
as §1

Assay [16] relates to MDA-MB-436. Particulars: 72 h. Put shortly: as §1
Assay [17] has as its system MFM-223. Particulars: 72 h. The method in brief:
as §1

Assay [18] concerns CAL-120. As to conditions: 72 h. Here is the method: as §3
The source holds these as a separate data set.

In assay [19] the test system is CAL-85-1. As to conditions: 72 h. Here is the method: as §3
The source holds these as a separate data set.

Assay [20] has as its system DU-4475. As to conditions: 72 h. Here is the method:
as §3
This is another data set of the same source.

For assay [21], the system named is MDA-MB-231. Particulars: 72 h. Here is the method:
as §3
This is another data set of the same source.

Assay [22] deals with MDA-MB-468. Particulars: 72 h. Here is the method:
as §3

Assay [23] has as its system HCC1599. As to conditions: 72 h. Put shortly:
as §1

The subject of assay [24] is MDA-MB-453. As to conditions: 72 h. The method in brief:
as §1

In assay [25] the test system is CAL-148. Particulars: 72 h. The method in brief:
as §2
The source holds these as a separate data set.

For assay [26], the system named is CAL-85-1. As to conditions: 72 h. The method in brief: as §2
This is another data set of the same source.

Assay [27] concerns BT-549. As to conditions: 72 h. Put shortly: as §2
The source holds these as a separate data set.

The subject of assay [28] is CAL-120. As to conditions: 72 h. Put shortly: as §2
The source holds these as a separate data set.

Assay [29] has as its system Hs578T. As to conditions: 72 h. Put shortly: as §2
The source holds these as a separate data set.

Assay [30] concerns MDA-MB-231. As to conditions: 72 h. Put shortly: as §2
This is another data set of the same source.

In assay [31] the test system is MDA-MB-436. As to conditions: 72 h. Put shortly: as §2
This is another data set of the same source.

In assay [32] the test system is MDA-MB-468. Particulars: 72 h. Put shortly: as §2
This is another data set of the same source.

The test system of assay [33] is SK-BR-3. As to conditions: 72 h. Put shortly:
as §2

In assay [34] the test system is SK-BR-3. Particulars: 72 h. The method in brief: as §1
This is another data set of the same source.

In assay [35] the test system is MDA-MB-436. Particulars: 72 h. Here is the method: as §3
The source holds these as a separate data set.

Assay [36] has as its system DU-4475. Particulars: 72 h. Put shortly:
as §2
This is another data set of the same source.

In assay [37] the test system is HDQ-P1. As to conditions: 72 h. Put shortly: as §2
Assay [38] has as its system HCC1143. As to conditions: 72 h. Put shortly: as §2
This is another data set of the same source.

The test system of assay [39] is HCC1599. As to conditions: 72 h. The method in brief:
as §2
The source holds these as a separate data set.

In assay [40] the test system is HDQ-P1. Particulars: 72 h. Here is the method:
as §3
The source holds these as a separate data set.

Regarding `O=C1CN2Cc3c(ccc(Cl)c3Cl)N=C2N1` [Anagrelide], the “EC50, CellTiter-Glo” value in [1] is > 10 µM. For the same compound, the results for the “EC50, CellTiter-Blue viability” value in [2] and in assay [3] were 0.0775 µM and 0.398 µM, respectively. The “EC50, CellTox Green” value in assay [4] amounted to 0.0306 µM. Also, the drug sensitivity score in assay [5] worked out at 0.
As to `COc1cc(F)c(F)c(Nc2ccc(I)cc2F)c1NS(=O)(=O)C1(C[C@H](O)CO)CC1` [Refametinib], the “EC50, CellTiter-Glo” value in [6] was determined as 2.21 µM; in [7] it was 0.315 µM; in [8], 6.68 µM; in assay [9], 0.84 µM; in [10], 0.0636 µM; in assay [11], 1.62 µM. The “EC50, CellTiter-Glo” value worked out at 5.05 µM in [12]; 6.15 µM in assay [13]; 0.00698 µM in assay [14]; 0.429 µM in [15]; 6.63 µM in assay [16]; 6.03 µM in assay [17]. Further, the “EC50, CellTox Green” value is > 10 µM in [18]; 0.788 µM in assay [19]; 0.11 µM in assay [20]; 0.0232 µM in assay [21]; 2.69 µM in [22]. In [5], this compound had a drug sensitivity score of 0.
As for `Nc1nc2[nH]cnc2c(=S)[nH]1` [Thioguanine], the “EC50, CellTiter-Glo” value in [6] is 9.55 µM; in assay [7], 1.32 µM; in [8] it was 1.72 µM; in assay [1] it was 2.31 µM; in [9], 0.841 µM; in assay [10], 4.33 µM. The “EC50, CellTiter-Glo” value in assay [11] came out at 4.32 µM; in assay [23] it was 3.45 µM; in assay [12] it was 0.729 µM; in [13], 1.35 µM; in assay [15], 0.491 µM; in assay [16] it was 4.73 µM. Besides, the “EC50, CellTiter-Glo” value in assay [24] was found to be 4.69 µM. The “EC50, CellTiter-Blue viability” value is 6.6 µM in assay [25]; > 10 µM in assay [2]; 1.35 µM in [26]; 9.86 µM in [27]; 1.14 µM in assay [28]; 6.66 µM in assay [3]. Besides, the “EC50, CellTiter-Blue viability” value is 6.56 µM in [29]; 0.212 µM in assay [30]; 0.667 µM in assay [31]; 0.748 µM in [32]; 9.94 µM in [33]. Besides, the drug sensitivity score in assay [5] was determined as 0.
As for `C[C@]12CC[C@@H]3c4ccc(OC(=O)N(CCCl)CCCl)cc4CC[C@H]3[C@@H]1CC[C@@H]2O` [Estramustine], the “EC50, CellTox Green” value was determined as 0.131 µM in assay [4] and 4.99 µM in [22]. Besides, the drug sensitivity score in [5] was determined as 0.
Turning to `C[C@]1(O)C[C@@H](c2nc(-c3ccc4ccc(-c5ccccc5)nc4c3)c3c(N)nccn32)C1` [Linsitinib], the “EC50, CellTiter-Glo” value in assay [7] is 8.04 µM; in [9], 3.55 µM; in [11] it was > 10 µM; in assay [23], 1.94 µM; in assay [14] it was 0.645 µM; in assay [24] it was 0.892 µM. Also, in assay [34], the “EC50, CellTiter-Glo” value amounted to 1.46 µM. Further, the “EC50, CellTox Green” value in assay [21] was > 10 µM; in [35], 6 µM. The drug sensitivity score in assay [5] was 0.
Turning to `CC1(C)CCC(CN2CCN(c3ccc(C(=O)NS(=O)(=O)c4ccc(NCC5CCOCC5)c([N+](=O)[O-])c4)c(Oc4cnc5[nH]ccc5c4)c3)CC2)=C(c2ccc(Cl)cc2)C1` [ABT-199], in [1], the “EC50, CellTiter-Glo” value turned out to be 0.702 µM. Further, the “EC50, CellTox Green” value in assay [18] is > 10 µM; in assay [22] it was 0.0035 µM.
Consider `Cn1cnc2c(F)c(Nc3ccc(Br)cc3Cl)c(C(=O)NOCCO)cc21` [Selumetinib], for which the “EC50, CellTiter-Glo” value in assay [7] stood at 9.28 µM; in [10] it was 0.21 µM; in assay [23], 1.67 µM; in assay [14], 0.0204 µM; in [15] it was 0.313 µM. Also, the “EC50, CellTiter-Blue viability” value in [26] was 0.563 µM; in assay [36] it was 0.0708 µM; in assay [37] it was 0.159 µM; in assay [28] it was 7.5 µM; in [38], 0.023 µM; in assay [39], 0.283 µM. Also, the “EC50, CellTiter-Blue viability” value in assay [3] is 1.07 µM; in [29], > 10 µM; in assay [30] it was 0.214 µM. The “EC50, CellTox Green” value in assay [20] was 0.172 µM; in assay [40], 0.324 µM; in assay [21], 0.724 µM; in [22] it was 2.46 µM. Moreover, the drug sensitivity score in assay [5] was found to be 0.

These data come from the supplement of paper PMC4862054.
